Measured values as given in US10112937B2, “P2X7 modulators and methods of use” (Janssen Pharmaceutica NV, priority 2013, dated 2018).

Tests used:
human P2X7 [1] = target: T1, human P2X7 (Homo sapiens (Human), UniProt Q99572); test: Ca2+ flux (FLIPR) in 1321N1 cells expressing recombinant human P2X7; assay type: cell-based;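 also: cells loaded with Calcium-4 dye, preincubated with test compound for 30 min, fluorescence change read 180 s after agonist addition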
human P2X7 [2] = target: T1, human P2X7; test: P2X7 antagonism in human PBMCs (IL-1β release after LPS + Bz-ATP, ELISA); assay type: cell-based; details: human PBMCs
Protocol: P2X7 Antagonism in Human Peripheral Blood Mononuclear Cells (PBMCs) and Human Whole Blood.
Human blood was collected using a blood donor program. PBMCs were isolated from blood using a Ficoll density gradient technique. Briefly, blood was laid on Ficoll solution and centrifuged at RT for 20 minutes at 2000 rpm. The buffy layer (between red blood cells and plasma) was carefully collected by aspiration, washed with PBS and centrifuged again at 1500 rpm for 15 minutes. The resulting cell pellet was washed and plated on 96 well-plates for experiments. For the Human Whole Blood experiments, 150 μl of human blood was platted on 96 well-plates. Lipopolysaccharide (LPS) (30 ng/ml) was added to each well and incubated for 1 hour. Test compounds were then added and incubated for 30 minutes. The P2X7 agonist, 2′(3′)-O-(4-benzoylbenzoyl) adenosine 5′ triphosphate (Bz-ATP) was then added at a final concentration of 0.5 mM (PBMC) or 1 mM (blood). Cells were incubated for an additional 1.5 hours. At that point, supernatant was collected and stored for IL-1β assay using manufacturer's protocol for enzyme-linked immunosorbent assay (ELISA). Data was expressed as percent control, where control is defined as the difference in IL-1β release in LPS+Bz-ATP samples and LPS only samples. Data was plotted as response (% control) versus concentration to generate IC50 values. […] Data are analyzed and graphed on Graphpad Prism 5. For analysis, each concentration point is averaged from triplicate values and the averaged values are plotted on Graphpad Prism.

human P2X7 [3] = target: T1, human P2X7; test: Radioligand binding ([3H]A-804598), human P2X7-1321N1 cell membranes
Protocol: human or rat P2X7-1321N1 cells were collected and frozen @−80° C. On the day of the experiment, cell membrane preparations were made according to standard published methods. […] The assay was terminated by filtration (GF/B filters pre-soaked with 0.3% PEI) and washed with washing buffer (Tris-HCl 50 mM). The IC50 generated in the binding assay was corrected for tracer concentration and affinity of the tracer to derive at the affinity (Ki) of the test compounds. […] For analysis, each concentration point is averaged from triplicate values and the averaged values are plotted on Graphpad Prism.

rat P2X7 = rat P2X7 (Rattus norvegicus (Rat), UniProt Q64663); test: Ca2+ flux (FLIPR) in 1321N1 cells expressing recombinant rat P2X7; assay type: cell-based;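 also: Calcium-4 dye fluorescence change read 180 s after agonist addition, with cells preincubated 30 min with compound and dye in 96-well plates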
Chain of rat P2X7 (Q64663 whole entry): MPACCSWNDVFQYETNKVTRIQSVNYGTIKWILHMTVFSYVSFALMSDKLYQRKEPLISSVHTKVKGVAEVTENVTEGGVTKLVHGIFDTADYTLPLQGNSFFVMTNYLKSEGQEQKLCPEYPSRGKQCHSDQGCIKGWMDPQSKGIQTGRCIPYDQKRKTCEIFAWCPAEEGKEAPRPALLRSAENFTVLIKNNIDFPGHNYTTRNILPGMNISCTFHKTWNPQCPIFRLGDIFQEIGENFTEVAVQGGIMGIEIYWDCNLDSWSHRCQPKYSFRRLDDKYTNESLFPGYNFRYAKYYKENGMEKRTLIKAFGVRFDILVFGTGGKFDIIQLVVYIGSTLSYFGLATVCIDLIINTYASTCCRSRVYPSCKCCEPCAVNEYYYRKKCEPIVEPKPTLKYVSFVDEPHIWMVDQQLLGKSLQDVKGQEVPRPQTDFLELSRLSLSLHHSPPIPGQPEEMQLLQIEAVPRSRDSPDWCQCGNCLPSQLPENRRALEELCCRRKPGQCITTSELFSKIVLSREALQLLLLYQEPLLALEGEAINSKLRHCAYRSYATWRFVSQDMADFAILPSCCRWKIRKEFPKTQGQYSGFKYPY

[4] = 1321N1 cells, recombinant human P2X7, 250 μM BzATP
[5] = human P2X7-1321N1 membranes, tritiated A-804598
[6] = 1321N1 cells, recombinant rat P2X7, 250 μM BzATP
[7] = Ca2+ flux, 250 μM BzATP, human P2X7 1321N1 cells
[8] = 10 μM test compound, LPS + Bz-ATP
[9] = Ca2+ flux, 250 μM BzATP, rat P2X7 1321N1 cells
[10] = [3H]A-804598, human P2X7-1321N1 membranes

T1 sequence (Q99572 whole entry): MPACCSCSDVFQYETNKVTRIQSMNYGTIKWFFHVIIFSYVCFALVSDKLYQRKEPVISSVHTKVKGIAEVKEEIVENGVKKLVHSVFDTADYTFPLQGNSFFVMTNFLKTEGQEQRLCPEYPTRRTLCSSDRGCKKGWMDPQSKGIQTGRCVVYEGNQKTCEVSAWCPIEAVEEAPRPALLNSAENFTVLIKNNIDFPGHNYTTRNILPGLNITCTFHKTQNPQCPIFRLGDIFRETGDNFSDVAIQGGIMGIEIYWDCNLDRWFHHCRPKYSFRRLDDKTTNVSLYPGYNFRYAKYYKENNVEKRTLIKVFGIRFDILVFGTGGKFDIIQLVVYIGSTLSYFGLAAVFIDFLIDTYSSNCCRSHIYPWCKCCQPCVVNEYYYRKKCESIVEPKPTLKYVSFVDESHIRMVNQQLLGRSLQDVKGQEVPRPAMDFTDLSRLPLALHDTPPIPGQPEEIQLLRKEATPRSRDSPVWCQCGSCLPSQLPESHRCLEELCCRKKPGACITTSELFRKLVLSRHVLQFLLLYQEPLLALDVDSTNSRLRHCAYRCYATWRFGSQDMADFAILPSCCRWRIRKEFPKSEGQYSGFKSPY

| SMILES | IC50 (human P2X7 [1]; [4]) | PBMC 10 μM (% control) (human P2X7 [2]; test compound 10 μM) | Ki (human P2X7 [3]; [5]) | IC50 (rat P2X7; [6]) | IC50 (human P2X7 [1]; [7]) | PBMC 10 μM (% control) (human P2X7 [2]; [8]) | IC50 (rat P2X7; [9]) | Ki (human P2X7 [3]; [10]) |
| --- | --- | --- | --- | --- | --- | --- | --- | --- |
| Cc1cc(-n2nnc3c2CCN(C(=O)c2ccnc(C(F)(F)F)c2F)[C@@H]3C)ncc1F (single isomer, unassigned) [Example 368, (R*)-(3-fluoro-2-(trifluoromethyl)pyridin-4-yl)(1-(5-fluoro-4-methylpyridin-2-yl)-4-methyl-6,7-dihydro-1H-[1,2,3]triazolo[4,5-c]pyridin-5(4H)-yl)methanone] | 22.6 nM | −2.3 % control | 39.8 nM | 235 nM |  |  |  |  |
| C[C@@H]1c2nnn(-c3cccc(C(F)(F)F)n3)c2CCN1C(=O)c1cccc(C(F)(F)F)c1Cl (single isomer, unassigned) [Example 379, (R*)-(2-chloro-3-(trifluoromethyl)phenyl)(4-methyl-1-(6-(trifluoromethyl)pyridin-2-yl)-6,7-dihydro-1H-[1,2,3]triazolo[4,5-c]pyridin-5(4H)yl)methanone] | 113 nM | 3.8 % control | 200 nM | 47.4 nM |  |  |  |  |
| Cc1ccnc(-n2nnc3c2CCN(C(=O)c2cccc(Cl)c2Cl)[C@H]3C)n1 (single isomer, unassigned) [Example 392, (S*)-(2,3-dichlorophenyl)(4-methyl-1-(4-methylpyrimidin-2-yl)-6,7-dihydro-1H-[1,2,3]triazolo[4,5-c]pyridin-5(4H)-yl)methanone] | 3.6 nM | 14.4 % control | 4 nM | 47.3 nM |  |  |  |  |
| Cc1cc(-n2nnc3c2CCN(C(=O)c2ccnc(C(F)(F)F)c2F)C3C)ncc1F (centres unmarked) [Example 367, (3-fluoro-2-(trifluoromethyl)pyridin-4-yl)(1-(5-fluoro-4-methylpyridin-2-yl)-4-methyl-6,7-dihydro-1H-[1,2,3]triazolo[4,5-c]pyridin-5(4H)-yl)methanone] | 75.7 nM | 0.9 % control | 115 nM | 2150 nM |  |  |  |  |
| Cc1cc(-n2nnc3c2CCN(C(=O)c2ccnc(C(F)(F)F)c2Cl)C3C)ncc1F (centres unmarked) [Example 370, (3-chloro-2-(trifluoromethyl)pyridin-4-yl)(1-(5-fluoro-4-methylpyridin-2-yl)-4-methyl-6,7-dihydro-1H-[1,2,3]triazolo[4,5-c]pyridin-5(4H)-yl)methanone] | 59.7 nM | −2.2 % control | 63.1 nM | 256 nM |  |  |  |  |
| CC1c2nnn(-c3cccc(C(F)(F)F)n3)c2CCN1C(=O)c1cccc(C(F)(F)F)c1Cl (centres unmarked) [Example 378, (2-chloro-3-(trifluoromethyl)phenyl)(4-methyl-1-(6-(trifluoromethyl)pyridin-2-yl)-6,7-dihydro-1H-[1,2,3]triazolo[4,5-c]pyridin-5(4H)-yl)methanone] | 78.9 nM | −0.1 % control | 158 nM | 137 nM |  |  |  |  |
| C[C@H]1c2nnn(-c3ccsc3)c2CCN1C(=O)c1cccc(C(F)(F)F)c1Cl [Example 421, (S)-(2-chloro-3-(trifluoromethyl)phenyl)(4-methyl-1-(thiophen-3-yl)-6,7-dihydro-1H-[1,2,3]triazolo[4,5-c]pyridin-5(4H)-yl)methanone] |  |  |  |  | 1030 nM | −1.4 % control | > 10000 nM |  |
| CC1c2n[nH]c(-c3ccc(F)cn3)c2CCN1C(=O)c1cccc(C(F)(F)F)c1Cl (centres unmarked) [Example 430, (2-chloro-3-(trifluoromethyl)phenyl)(3-(5-fluoropyridin-2-yl)-7-methyl-4,5-dihydro-2H-pyrazolo[3,4-c]pyridin-6(7H)-yl)methanone] |  |  |  |  | 70.8 nM | −4.0 % control | 158 nM | 36.3 nM |
| CC1c2n[nH]c(-c3ncccn3)c2CCN1C(=O)c1cccc(Cl)c1Cl (centres unmarked) [Example 431, (2,3-dichlorophenyl)(7-methyl-3-(pyrimidin-2-yl)-4,5-dihydro-2H-pyrazolo[3,4-c]pyridin-6(7H)-yl)methanone] |  |  |  |  | 6 nM | −6.4 % control | 320 nM | 12.3 nM |
| CC1c2n[nH]c(-c3ccccn3)c2CCN1C(=O)c1cccc(C(F)(F)F)c1Cl (centres unmarked) [Example 432, (2-chloro-3-(trifluoromethyl)phenyl)(7-methyl-3-(pyridin-2-yl)-4,5-dihydro-2H-pyrazolo[3,4-c]pyridin-6(7H)-yl)methanone] |  |  |  |  |  | 0.3 % control | 32.8 nM | 15.8 nM |
| CC1c2n[nH]c(-c3cnccn3)c2CCN1C(=O)c1cccc(Cl)c1Cl (centres unmarked) [Example 433, (2,3-dichlorophenyl)(7-methyl-3-(pyrazin-2-yl)-4,5-dihydro-2H-pyrazolo[3,4-c]pyridin-6(7H)-yl)methanone] |  |  |  |  | 18.9 nM | −3.6 % control |  | 15.8 nM |
| CC1c2n[nH]c(-c3ccc(F)cc3)c2CCN1C(=O)c1cccc(C(F)(F)F)c1Cl (centres unmarked) [Example 434, (2-chloro-3-(trifluoromethyl)phenyl)(3-(4-fluorophenyl)-7-methyl-4,5-dihydro-2H-pyrazolo[3,4-c]pyridin-6(7H)-yl)methanone] |  |  |  |  | 43.5 nM | 3.1 % control | 432 nM | 47.9 nM |
| CC1c2n[nH]c(-c3ccc(F)cc3)c2CCN1C(=O)c1cccc(Cl)c1Cl (centres unmarked) [Example 435, (2,3-dichlorophenyl)(3-(4-fluorophenyl)-7-methyl-4,5-dihydro-2H-pyrazolo[3,4-c]pyridin-6(7H)-yl)methanone] |  |  |  |  | 58.6 nM | −11.3 % control |  | 100 nM |
| CC1c2n[nH]c(-c3ccnn3C)c2CCN1C(=O)c1cccc(Cl)c1Cl (centres unmarked) [Example 436, (2,3-dichlorophenyl)(7-methyl-3-(1-methyl-1H-pyrazol-5-yl)-4,5-dihydro-2H-pyrazolo[3,4-c]pyridin-6(7H)-yl)methanone] |  |  |  |  | 1130 nM | −3.4 % control | > 10000 nM |  |
| CC1c2n[nH]c(-c3ccnn3C)c2CCN1C(=O)c1cccc(C(F)(F)F)c1Cl (centres unmarked) [Example 437, (2-chloro-3-(trifluoromethyl)phenyl)(7-methyl-3-(1-methyl-1H-pyrazol-5-yl)-4,5-dihydro-2H-pyrazolo[3,4-c]pyridin-6(7H)-yl)methanone] |  |  |  |  | 240 nM | −11.7 % control | 14600 nM | 144 nM |

Further lines, results first:

| IC50 (human P2X7 [1]; [4]) | PBMC 10 μM (% control) (human P2X7 [2]; test compound 10 μM) | Ki (human P2X7 [3]; [5]) | IC50 (rat P2X7; [6]) | IC50 (human P2X7 [1]; [7]) | PBMC 10 μM (% control) (human P2X7 [2]; [8]) | IC50 (rat P2X7; [9]) | Ki (human P2X7 [3]; [10]) | SMILES |
| --- | --- | --- | --- | --- | --- | --- | --- | --- |
| 6.5 nM | −2.3 % control | 10 nM | 2.2 nM |  |  |  |  | Cc1c(C(=O)N2Cc3nnn(-c4ccn[nH]4)c3C[C@H]2C)cccc1C(F)(F)F (single isomer, unassigned) [Example 346, (R*)-(6-methyl-1-(1H-pyrazol-3-yl)-6,7-dihydro-1H-[1,2,3]triazolo[4,5-c]pyridin-5(4H)-yl)(2-methyl-3-(trifluoromethyl)phenyl)methanone] |
| 2.7 nM | 0.7 % control | 7.9 nM | 2.2 nM |  |  |  |  | C[C@H]1Cc2c(nnn2-c2ccn[nH]2)CN1C(=O)c1cccc(C(F)(F)F)c1F (single isomer, unassigned) [Example 349, (S*)-(2-fluoro-3-(trifluoromethyl)phenyl)(6-methyl-1-(1H-pyrazol-5-yl)-6,7-dihydro-1H-[1,2,3]triazolo[4,5-c]pyridin-5(4H)-yl)methanone] |
|  | −0.6 % control | 7.9 nM |  |  |  |  |  | Cc1c(C(=O)N2Cc3nnn(-c4cc[nH]n4)c3CC2C)cccc1C(F)(F)F (centres unmarked) [Example 154, (6-methyl-1-(1H-pyrazol-3-yl)-6,7-dihydro-1H-[1,2,3]triazolo[4,5-c]pyridin-5(4H)-yl)(2-methyl-3-(trifluoromethyl)phenyl)methanone] |
|  | 1.8 % control | 6.3 nM |  |  |  |  |  | C[C@H]1Cc2c(nnn2-c2ncc(F)cn2)CN1C(=O)c1ccc(Cl)cc1F [Example 156, (S)-(4-chloro-2-fluorophenyl)(1-(5-fluoropyrimidin-2-yl)-6-methyl-6,7-dihydro-1H-[1,2,3]triazolo[4,5-c]pyridin-5(4H)-yl)methanone] |
| 51.2 nM | 8.5 % control | 89.1 nM | 11100 nM |  |  |  |  | CC1c2nnn(-c3ncc[nH]3)c2CCN1C(=O)c1cccc(C(F)(F)F)c1Cl (centres unmarked) [Example 393, (1-(1H-imidazol-2-yl)-4-methyl-6,7-dihydro-1H-[1,2,3]triazolo[4,5-c]pyridin-5(4H)-yl)(2-chloro-3-(trifluoromethyl)phenyl)methanone] |
|  |  |  |  | > 10000 nM | 113.2 % control | > 10000 nM |  | C[C@H]1Cc2c(nnn2-c2ncc(F)cn2)CN1C(=O)c1cccc(C(F)(F)F)c1O [Example 426, (S)-(1-(5-fluoropyrimidin-2-yl)-6-methyl-6,7-dihydro-1H-[1,2,3]triazolo[4,5-c]pyridin-5(4H)-yl)(2-hydroxy-3-(trifluoromethyl)phenyl)methanone] |
|  |  |  |  | 262 nM | −0.8 % control | 8280 nM |  | C[C@H]1Cc2c(nnn2-c2ncc(F)cn2)CN1C(=O)c1cccc(OC(F)(F)F)c1F [Example 427, (S)-(2-fluoro-3-(trifluoromethoxy)phenyl)(1-(5-fluoropyrimidin-2-yl)-6-methyl-6,7-dihydro-1H-[1,2,3]triazolo[4,5-c]pyridin-5(4H)-yl)methanone] |
|  |  |  |  | 16.6 nM | 1.4 % control | 21.2 nM |  | C[C@H]1Cc2c(nnn2-c2ncc(O)cn2)CN1C(=O)c1cccc(C(F)(F)F)c1F [Example 428, (S)-(2-fluoro-3-(trifluoromethyl)phenyl)(1-(5-hydroxypyrimidin-2-yl)-6-methyl-6,7-dihydro-1H-[1,2,3]triazolo[4,5-c]pyridin-5(4H)-yl)methanone] |
